# Experimental data published in the COVID Moonshot data (paper PMC11187573), “Identification of SARS-CoV-2 Mpro inhibitors through deep reinforcement learning for de novo drug design and computational chemistry approaches” (RSC Medicinal Chemistry, 2024).
# pIC50: −log10 of the molar value.
# Tests used:
# [1] = target: SARS-CoV-2 Main Protease (SARS-CoV-2) (UniProt P0DTD1)
# [2] = target: SARS-CoV-2 Main Protease (SARS-CoV-2) (UniProt P0DTD1); remark: listed apart in the source
Structure (SMILES),pIC50 [1],inhibition ([2]; 20.0 µM) [%],inhibition ([2]; 50.0 µM) [%],other results
COc1ccc2c(=O)c(O)c(-c3ccc(OCc4ccccc4)c(OCc4ccccc4)c3)oc2c1,–,–,–,inhibition ([1]; 50.0 µM): 14.1%
Nc1nn(C(=O)Cc2cccc(Cl)c2)c2ccc(F)cc12,4.03,–,–,–
CN(C)c1ccc(N(Cc2ccccc2)C(=O)Cn2nnc3ccccc32)cc1,5.81,–,–,–
Cc1ccncc1NC(=O)Cc1cc(Cl)cc(NCC(C)(C)C#N)c1,4.48,–,–,–
Cc1ccncc1NC(=O)C(CO)c1cccc(Cl)c1 (stereo not given),4.32,–,–,–
CC(=O)Nc1cccc(N2CCCC2=O)c1,–,–,–,inhibition ([1]; 20.0 µM): 11.4%; inhibition ([1]; 50.0 µM): 22.7%
CC(C)(C)c1ccc(N(C(=O)c2ccco2)[C@H](C(=O)NCCc2cccc(F)c2)c2cccnc2)cc1,–,–,–,inhibition ([1]; 50.0 µM): 100%
Nc1nn(C(=O)C2CCOc3ccc(Cl)cc32)c2ccncc12 (stereo not given),4.02,–,–,–
Cc1ccncc1NC(=O)Cc1cc(Cl)cc(NC2CCCC2O)c1 (stereo not given),4.41,–,–,inhibition ([1]; 50.0 µM): 61.5%
C[N+]1=C2C=C(NCCc3ccc(O)cc3)C(=O)c3[nH]cc(c32)CC1,–,–,–,inhibition ([1]; 50.0 µM): 2.74%
O=c1cc(-c2ccc(OCc3ccccc3)cc2)oc2ccccc12,–,–,–,inhibition ([1]; 50.0 µM): 35.9%
N#Cc1ccccc1NC(=O)[C@@H](c1ccccc1)N1Cc2ccccc2C1=O (stereo in doubt),4.24,–,–,–
CN(C)c1ccc(N(Cc2cccc(Cl)c2)C(=O)Cn2nnc3ccccc32)cc1,6.41,–,–,–
CC(C)(C)c1ccc(N(C(=O)c2ccc(Cl)o2)C(C(=O)NCCc2cccc(F)c2)c2cccnc2)cc1 (stereo not given),6.29,–,–,inhibition ([1]; 50.0 µM): 69.3%
Cc1ccc(N(Cc2cccc(Cl)c2)C(=O)Cn2nnc3ccccc32)cc1,5.48,–,–,–
O=C(Cc1cccc(Cl)c1)Nc1cccc2[nH]ncc12,4.63,–,–,–
Cc1cc2c(c(O)c1-c1c(C)cc(O)c3c1C(=O)C=CC3=O)C(=O)C=CC2=O,5.08,–,–,inhibition ([1]; 50.0 µM): 100%
O=C(Cc1cccc(Cl)c1)Nc1[nH]nc2cc(F)ccc12,4.04,–,–,–
O=C(Nc1n[nH]c2ccnc(Br)c12)C1CCOc2ccc(Cl)cc21 (stereo not given),4.13,–,–,–
O=C(Cc1cccc(Cl)c1)Nc1[nH]nc2cccc(F)c12,4.09,–,–,–
Cc1ccncc1NC(=O)Cc1cc(Cl)cc(-c2ccc(C3(C)CCO3)cc2)c1 (stereo not given),4.82,–,–,–
C[C@H]1C[C@@H](C(=O)Nc2cncc3ccccc23)c2cc(Cl)ccc2O1 (stereo in doubt),4.34,–,–,–
Cc1ccc(NC2=C(c3ccccc3)C(=O)N(Cc3cccnc3)C2=O)cc1C,4.36,–,–,–

Structure (SMILES),pIC50 [1],inhibition ([2]; 20.0 µM) [%],inhibition ([2]; 50.0 µM) [%],other results
O=C(Nc1cncc2ccccc12)C1COc2ccc(Cl)cc21 (stereo not given),6.29,–,–,inhibition ([1]; 50.0 µM): 77%
O=C(Cn1nnc2ccccc21)N(Cc1ccsc1)c1ccc(N2CCCCC2)cc1,5.20,–,–,–
O=C(Cc1cncc2ccccc12)Nc1cc(Cl)cc(OC2CCC(=O)N2)c1 (stereo not given),4.71,–,–,–
CCC(=O)Nc1ccc(N(Cc2ccccc2)C(=O)Nn2nnc3ccccc32)cc1,5.43,–,–,–
O=C(Nc1cncc2ccccc12)C1(CCC2CC2)CCOc2ccc(Cl)cc21 (stereo not given),4.03,–,–,–
Cc1cc(C(F)(F)F)nc2n[nH]c(NC(=O)Cc3cccc(Cl)c3)c12,4.09,–,–,–
Cc1ccncc1NC(=O)Cc1cc(Cl)cc(CNS(C)(=O)=O)c1,4.49,–,–,–
Cc1ccncc1NC(=O)Cc1cc(Cl)cc(-c2ccc(C3CC3(F)F)cc2)c1 (stereo not given),5.55,–,–,–
O=C(Cc1cccc(Cl)c1)Nc1cncc2c1CCCN2,5.39,–,–,–
CC(C)(C)c1ccc(N(C(=O)c2ccco2)[C@@H](C(=O)NCCc2cccc(F)c2)c2cccnc2)cc1,–,–,–,inhibition ([1]; 50.0 µM): 100%
C/C=C1\C(C2(C)CCCC(C)(C)C2)=CCC2C1[C@@H](OC(C)=O)O[C@H]2OC(C)=O (stereo in doubt),–,–,–,inhibition ([1]; 50.0 µM): 0%
Cc1cc(C(F)(F)F)nc2c1c(N)nn2C(=O)C1CCOc2ccc(Cl)cc21 (stereo not given),4.24,–,–,–
Cc1noc(COc2cc(Cl)cc(CC(=O)Nc3cnccc3C)c2)n1,4.62,–,–,–
O=C(Nn1nnc2ccccc21)C(Cc1cccc(Cl)c1)c1ccc(N2CCCCC2=O)cc1 (stereo not given),4.09,–,–,–
O=C(Cc1cccc(Cl)c1)Nc1cnccc1-c1ccccc1,4.60,–,–,–
Cc1ccncc1NC(=O)Cc1cc(Cl)cc(-c2ccc(C)c(F)c2F)c1,4.25,–,–,–
O=C(COc1ccccc1F)Nc1ncnc2[nH]cnc12,–,-6.54,-3.69,–
O=C(Nc1nncn1C1CC1)C1CCOc2ccccc21 (stereo not given),–,-1.27,2.15,–
CC1Cn2nccc2CN1C(=O)CC1(C(=O)Nc2cncc3ccccc23)CCOc2ccc(Cl)cc21 (stereo not given),–,–,–,pIC50 [2]: 5.68
Cc1ccncc1CC(=O)Nc1cccc2c1CNCC2,–,-1.08,2.76,–
COC(=O)c1c(C)nn(-c2ccccc2)c1-c1cc(C)on1,–,18.8,3.16,–
C=CC(=O)N(c1ccc(CCC#N)cc1)C(C(=O)NC(C)(C)C)c1cccnc1 (stereo not given),–,1.48,3.3,–
CC(C)Cn1cc(NC(=O)NCc2ccc3c(c2)OCO3)c2ccccc2c1=O,–,15.3,11.2,–

Structure (SMILES),pIC50 [1],inhibition ([2]; 20.0 µM) [%],inhibition ([2]; 50.0 µM) [%],other results
Cc1ccncc1NC(=O)Cc1ccc2[nH]ncc2c1,–,-1.11,0.248,–
CC(C)Oc1ccc(N(C(=O)c2cnc[nH]2)C(C(=O)NCCc2cccc(F)c2)c2cccnc2)cc1 (stereo not given),–,–,–,pIC50 [2]: 6.15
COC(=O)C(c1ccccc1Cl)N1CCC(S)/C(=C/C(=O)O)C1 (stereo not given),–,-2.05,1.77,–
CC(C)Cn1cc(NC(=O)NC2CCCCCC2)c2ccccc2c1=O,–,4.79,2.3,–
COc1ccc2nc(NC(=O)Nc3cn(CC(C)C)c(=O)c4ccccc34)sc2c1,–,21.3,17.6,–
COc1ccccc1OCCNC(=O)c1cc(=O)[nH]c2cccc(OC)c12,–,84.4,90.9,–
CCCCN(CCNC(=O)Nc1cn(C)c(=O)c2ccccc12)Cc1ccco1,–,6.22,12.5,–
Cc1ccn2cnnc2c1NC(=O)C1CCOc2ccccc21 (stereo not given),–,-11.2,-4.74,–
CC(=O)c1cccc(NC(=O)Nc2cn(C)c(=O)c3ccccc23)c1,–,22.4,11.9,–
C[C@@H]1CC[C@@H](c2ccoc2)N2C1CC[C@@]1(CS[C@@]3(CC[C@H]4[C@H](C)CC[C@@H](c5ccoc5)N4[C@@H]3O)C1)[C@@H]2O (stereo in doubt),–,-19.4,-23.4,–
O=C1CC(C(=O)Nc2cncc3ccccc23)c2cc(Cl)cc(Cl)c2N1 (stereo not given),–,–,–,pIC50 [2]: 5.52
O=C(Nc1nncn1C1CC1)C1CCOc2c(F)cccc21 (stereo not given),–,2.37,3.56,–
Cn1cc(NC(=O)NCc2ccccn2)c2ccccc2c1=O,–,-2.84,-6.9,–
CN(Cc1cccc2ccccc12)c1cc(Cl)cc(CC(=O)Nc2cncc3ccccc23)c1,–,–,–,pIC50 [2]: 5.76
CCOC(=O)Cc1csc(NC(=O)Nc2cn(CC(C)C)c(=O)c3ccccc23)n1,–,23.2,2.55,–
COC[C@@]1(C(=O)Nc2cncc3ccccc23)CCOc2cc(Cl)c(Cl)cc21 (stereo in doubt),–,–,–,pIC50 [2]: 4.77
CC(C)Cn1cc(NC(=O)Nc2cccnc2)c2ccccc2c1=O,–,6.1,6.63,–
Cc1[nH]c2ncnc(NC(=O)c3cccc4c3oc(=O)n4C)c2c1C,–,2.86,6.1,–
CCn1c(=O)c(-c2cc[nH]n2)cc2c(C)nc(N)nc21,–,-0.487,4.38,–
COc1ccc(NC(=O)c2ccc(C(=N)N(C)C)cc2)c(C(=O)Nc2ccc(Cl)cn2)c1,–,-17.3,-3.35,–
CC(C)CCC(=O)C[C@H]1c2ccccc2C(=O)N1c1ccc2ccc(Cl)nc2n1 (stereo in doubt),–,4.26,-0.676,–
